{"source": "patent US20100113436A1", "about": "“DISPIRO TETRAOXANE COMPOUNDS AND THEIR USE IN THE TREATMENT OF MALARIA AND/OR CANCER” (priority 2006, published 2010)", "key": {"[1]": {"system": "3D7 strain of Plasmodium falciparum", "assay": "In vitro antimalarial activity, 48-h [3H]-hypoxanthine incorporation assay", "format": "cell-based", "experimental": "The 3D7 strain of Plasmodium falciparum was used in this study. This strain is known to be […] Parasites were maintained in continuous culture using the method of Jensen and Trager^4. […] Stock drug solutions were prepared in 100% dimethylsulphoxide (DMSO) and diluted to the appropriate concentration using complete medium. Assays were performed in sterile 96-well microlitre plates, each plate contained 200 μl of parasite culture (2% parasitemia, 0.5% haematocrit) with or without 10 μl drug dilutions. Each drug was tested in triplicate and parasite growth compared to control wells (which constituted 100% parasite growth). […] IC50 values were calculated by interpolation of the probit transformation of the log dose-response curve."}, "P. berghei ANKA [2]": {"system": "P. berghei ANKA", "assay": "In vivo dose response screening against P. berghei ANKA", "design": "species or system mice", "settings": "Plasmodium berghei; P. berghei ANKA infected mice; Table 9", "experimental": "Compound 29c, 29h and 291 were then subjected to dose response experiment against the P. berghei ANKA and the results are summarized in Table 7 below."}, "[3]": {"system": "Plasmodium falciparum DD2", "assay": "In vitro analysis versus strains of Plasmodium falciparum: DD2", "format": "cell-based", "settings": "DD2 strain, read-out: IC50"}, "Plasmodium falciparum K1": {"system": "Plasmodium falciparum K1", "assay": "In vitro analysis versus strains of Plasmodium falciparum: K1", "format": "cell-based", "settings": "K1 strain"}, "[4]": {"system": "Plasmodium falciparum GC03", "assay": "In vitro analysis versus strains of Plasmodium falciparum: GC03", "format": "cell-based", "settings": "GC03 strain, read-out: IC50"}, "[5]": {"system": "Plasmodium falciparum V1S", "assay": "microbe, parasite or virus in culture", "format": "cell-based"}, "[6]": {"system": "Plasmodium falciparum HB3", "assay": "In vitro analysis versus strains of Plasmodium falciparum: HB3", "format": "cell-based", "settings": "HB3 strain, read-out: IC50"}, "[7]": {"system": "Plasmodium falciparum PH3", "assay": "In vitro analysis versus strains of Plasmodium falciparum: PH3", "format": "cell-based", "settings": "PH3 strain, read-out: IC50"}, "[8]": {"system": "Plasmodium falciparum TM4", "assay": "In vitro analysis versus strains of Plasmodium falciparum: TM4", "format": "cell-based", "settings": "TM4 strain, read-out: IC50"}, "[9]": {"system": "HepG2 Human hepatocyte carcinoma", "assay": "Cellular cytotoxicity screen, Resazurin reduction", "format": "cell-based", "settings": "Hep2G", "description": "(§1) Values represent Tox 50 in μM. Cytotoxicity measured by Resazurin reduction.\n(§2) Single full dose response curves generated using 10 independent drug concentrations. The 100 therapeutic index (TI) is the ration of the TOX 50 to the IC50 for the specific compound against the 3D7 P. falciparum isolate. The primary hepatocytes have demonstrable drug metabolising activity. The tetraoxane derivatives are remarkably non-toxic in these screens with in vitro TIs of between 5000 to 17000!."}, "[10]": {"system": "H9c2(2-1) Myocardium, heart", "assay": "Cellular cytotoxicity screen, Resazurin reduction", "format": "cell-based, rat", "settings": "H9c(2-1)", "description": "as §1, §2"}, "[11]": {"system": "L6 Sketal muscle myoblast", "assay": "Cellular cytotoxicity screen, Resazurin reduction", "format": "cell-based, rat", "description": "as §1, §2"}, "[12]": {"system": "MRC-5 Embryonal lung, diploid", "assay": "Cellular cytotoxicity screen, Resazurin reduction", "format": "cell-based, Human", "description": "as §1, §2"}, "Vero Kidney": {"system": "Vero Kidney", "assay": "Cellular cytotoxicity screen, Resazurin reduction", "format": "cell-based, African green monkey, Cercopithecus aethiops", "description": "as §1, §2"}, "[13]": {"system": "Salmonella typhimurium NM2009", "assay": "Salmonella typhimurium SOS/umu genotoxicity assay", "description": "(§3) This assay is based on the ability of DNA damaging agents to induce the expression of the umu operon. The Salmonella strains have a plasmid pSK1002 which carries an umuC-lacZ fused gene that produces a hybrid protein with β-galactosidase activity and whose expression is controlled by the umu regulatory region."}, "[14]": {"system": "Salmonella typhimurium TA1535/pSK1002", "assay": "Salmonella typhimurium SOS/umu genotoxicity assay", "description": "as §3"}, "P. berghei ANKA [15]": {"system": "P. berghei ANKA", "assay": "In vivo dose response screening against P. berghei ANKA", "settings": "P. berghei ANKA infected mice; Table 9; sigmoidal curve calculation"}, "[16]": {"assay": "Timed iron degradation stability, FeBr2 in THF", "format": "physicochemical", "settings": "ferrous bromide/THF", "description": "The resulting residue was purified by flash column chromatography and the % recovery of starting endoperoxide calculated (Table 15)."}, "[17]": {"assay": "Stability to other iron salts (FeSO4•7H2O, FeCl2•4H2O)", "format": "physicochemical", "settings": "further iron salts"}, "[18]": {"settings": "ratio TOX 50 to IC50 against 3D7 P. falciparum"}}, "note": "Like-named read-outs stand apart in the source and are kept apart here."}
{"compound": "CCS(=O)(=O)N1CCC2(CC1)OOC1(OO2)C2CC3CC(C2)CC1C3", "note": "[Tetraoxane 39b]", "values": [{"measurement": "IC50", "setting": "[1]; 3D7, read-out: Mean IC50", "result": 5.55, "unit": "nM"}, {"measurement": "ED50", "setting": "P. berghei ANKA [2]", "result": 6.61, "unit": "mg/kg"}, {"measurement": "IC50", "setting": "[3]", "result": 3, "unit": "nM"}, {"measurement": "IC50", "setting": "Plasmodium falciparum K1", "result": 3, "unit": "nM"}, {"measurement": "IC50", "setting": "[4]", "result": 3, "unit": "nM"}, {"measurement": "IC50", "setting": "[5]", "result": 2.7, "unit": "nM"}, {"measurement": "IC50", "setting": "[6]", "result": 3.8, "unit": "nM"}, {"measurement": "IC50", "setting": "[7]", "result": 1.9, "unit": "nM"}, {"measurement": "IC50", "setting": "[8]", "result": 2.4, "unit": "nM"}, {"measurement": "Tox 50", "setting": "[9]", "result": ">50", "unit": "µM"}, {"measurement": "Theraputic Index (TI)", "setting": "[9]; [18]", "result": ">9090"}, {"measurement": "Tox 50", "setting": "[10]", "result": ">50", "unit": "µM"}, {"measurement": "Theraputic Index (TI)", "setting": "[10]; [18]", "result": ">9090"}, {"measurement": "Tox 50", "setting": "[11]", "result": 31, "unit": "µM"}, {"measurement": "Theraputic Index (TI)", "setting": "[11]; [18]", "result": 5636}, {"measurement": "Tox 50", "setting": "[12]", "result": ">50", "unit": "µM"}, {"measurement": "Theraputic Index (TI)", "setting": "[12]; [18]", "result": ">9090"}, {"measurement": "Tox 50", "setting": "Vero Kidney", "result": ">50", "unit": "µM"}, {"measurement": "Theraputic Index (TI)", "setting": "Vero Kidney; [18]", "result": ">9090"}, {"measurement": "MCE NM2009 (Maximum Co w/o effects on bacteria growth or beta-galactosidase production)", "setting": "[13]; Salmonella typhimurium", "result": 50, "unit": "µM"}, {"measurement": "Max. Fold Increase", "setting": "[13]; −S9", "result": "1.07 ± 0.03", "unit": "fold"}, {"measurement": "Potential genotox", "setting": "[13]; −S9", "result": "NEG"}, {"measurement": "MCE TA1535 (Maximum Co w/o effects on bacteria growth or β-galactosidase production)", "setting": "[14]; Salmonella typhimurium", "result": 50, "unit": "µM"}, {"measurement": "genotoxicity result in SOS/umu assay", "setting": "[14]; both strains TA1535/pSK1002 and NM2009, highest concentration tested 50 μM, absence and presence of S-9 mix", "result": "Negative"}, {"measurement": "Max. Fold Increase", "setting": "[14]; −S9", "result": "1.03 ± 0.07", "unit": "fold"}, {"measurement": "Potential genotox", "setting": "[14]; −S9", "result": "NEG"}, {"measurement": "ED90", "setting": "P. berghei ANKA [15]", "result": 35.48, "unit": "mg/kg"}, {"measurement": "solubility", "setting": "physchem", "result": 50, "unit": "µM"}]}
{"compound": "CCN(CC)Cc1cc(Nc2ccnc3cc(Cl)ccc23)ccc1O", "note": "[AM, Amodiaquine, reference compound]", "values": [{"measurement": "IC50", "setting": "[3]", "result": 6.1, "unit": "nM"}, {"measurement": "IC50", "setting": "Plasmodium falciparum K1", "result": 10.2, "unit": "nM"}, {"measurement": "IC50", "setting": "[4]", "result": 4.5, "unit": "nM"}, {"measurement": "IC50", "setting": "[5]", "result": 7.7, "unit": "nM"}, {"measurement": "IC50", "setting": "[6]", "result": 5.9, "unit": "nM"}, {"measurement": "IC50", "setting": "[7]", "result": 4.7, "unit": "nM"}, {"measurement": "IC50", "setting": "[8]", "result": 6.4, "unit": "nM"}]}
{"compound": "O=S(=O)(c1ccccc1)N1CCC2(CC1)OOC1(OO2)C2CC3CC(C2)CC1C3", "note": "[Tetraoxane 39f]", "values": [{"measurement": "IC50", "setting": "[1]; 3D7, sulfonamide dispiro 1,2,4,5-tetraoxanes, Table 8, read-out: Mean IC50", "result": 8.1, "unit": "nM"}, {"measurement": "degradation", "setting": "[16]; after 4 h", "result": 10, "unit": "%"}, {"measurement": "turnover", "setting": "[16]; after 48 h", "result": 31, "unit": "%"}, {"measurement": "degradation by iron salts known to degrade artemisinin and arteflene", "setting": "[17]", "result": "ineffective at degrading"}]}
